Data on 4 compounds can be found in US8324284B2, “Migrastatin analogs and uses thereof” (Sloan-Kettering Institute for Cancer Research, priority 2003, dated 2012).

Series [1] relates to 4T1 tumors. The series can be described thus: 4T1 primary tumor growth in mice. The settings on record: 10 mg/kg i.p. daily Day 7-25, final tumor size Day 28. It counts as in vivo, mouse. The procedure:
Female BALB/c mice (6-8 week old) were purchased from the Jackson Laboratory (Bar Harbor, Me.). All mice were housed at the Weill Medical College of Cornell University Animal Facilities in accordance with the Principles of Animal Care (NIH publication no. 85-23, revised 1985). 4T1 tumor cells (1×10^5) were injected subcutaneously into the abdominal mammary gland area of mice in 0.1 ml of a single-cell suspension in phosphate buffered saline (PBS) on Day 0. The dosage of tumor implantation was empirically determined to give rise to tumor of ˜10 mm in diameter in untreated wild type mice in 21-23 days. On Day 7, when the tumors averaged in size ˜4-5 mm in diameter, migrastatin analogs or control PBS saline were given every day by intraperitoneal injection at 10 mg/kg or 20 mg/kg per mouse until Day 25. On Day 28, the mice were sacrificed. […] Primary tumors were measured using electronic calipers on the day when the mice were sacrificed. […] Numbers of metastatic 4T1 cells in lung were determined by the clonogenic assay.^63 In brief, lungs were removed from each mouse on Day 28, finely minced and digested in 5 ml of enzyme cocktail containing 1×PBS and 1 mg/ml collagenase type IV for 2 hours at 37° C. on a platform rocker. […]
Effect of migrastatin analogs on 4T1 tumor cell growth (See, FIG. 5). […] On Day 28, primary tumors were measured using electronic calipers. […]

Series [2] relates to 4T1 tumor lung metastasis. The series can be described thus: 4T1 tumor lung metastasis in syngeneic mice. Conditions: mean and standard deviation. It counts as in vivo, mouse. The procedure:
Female BALB/c mice (6-8 week old) were purchased from the Jackson Laboratory (Bar Harbor, Me.). All mice were housed at the Weill Medical College of Cornell University Animal Facilities in accordance with the Principles of Animal Care (NIH publication no. 85-23, revised 1985). 4T1 tumor cells (1×10^5) were injected subcutaneously into the abdominal mammary gland area of mice in 0.1 ml of a single-cell suspension in phosphate buffered saline (PBS) on Day 0. The dosage of tumor implantation was empirically determined to give rise to tumor of ˜10 mm in diameter in untreated wild type mice in 21-23 days. On Day 7, when the tumors averaged in size ˜4-5 mm in diameter, migrastatin analogs or control PBS saline were given every day by intraperitoneal injection at 10 mg/kg or 20 mg/kg per mouse until Day 25. On Day 28, the mice were sacrificed. This regiment of migrastatin analogs was well tolerated with no signs of overt toxicity. Every group included five mice. Primary tumors were measured using electronic calipers on the day when the mice were sacrificed. Tumor size was the square root of the product of two perpendicular diameters. Numbers of metastatic 4T1 cells in lung were determined by the clonogenic assay.^63 In brief, lungs were removed from each mouse on Day 28, finely minced and digested in 5 ml of enzyme cocktail containing 1×PBS and 1 mg/ml collagenase type IV for 2 hours at 37° C. on a platform rocker. After incubation, samples were filtered through 70 uM nylon cell strainers and washed twice with PBS. Resulting cells were suspended and plated serially diluted in 10 cm tissue culture dishes in medium RPMI1640 containing 60 uM thioguanine for clonogenic growth. 6-Thioguanine-resistant tumor cells formed foci after 14 days, at which time they were fixed with methanol and stained with 0.03% methylene blue for counting.
Treatment 4T1 tumor lung metastasis in syngeneic mice with migrastatin analogs (See, FIG. 4). 4T1 tumor cells (10^5) were injected s.c. in the abdominal mammary gland with 0.1 ml of a single-cell suspension. Macroketone or macrolactam at 10 mg/kg or 20 mg/kg was given i.p. on Day 7 when the tumor size was about 5 mm in diameter, and every day until Day 25. On Day 28, the mice were sacrificed. Each group comprised five mice. Lung metastasis was measured by the 6-thiogunine clonogenic assay. The mean and standard deviation are presented. In the control group (daily PBS injection), there were 61300±18900 colonies.

Series [3] in a line: Metabolic stability in mouse plasma. It counts as in vitro ADME. The settings on record: mouse plasma/PBS, 37° C.; for stability (t1/2, mouse plasma), in words: 60 min of incubation, stable = intensity of HPLC signal unchanged. The procedure: Mouse Plasma Stability Studies (Table 5): HPLC conditions: The sample is injected and separated using an Inertsil ODS3 6u 3×150 mm column with a mobile phase of MeCN and water (50% for migrastatin) at a flow of 0.4 mL/min, monitored at 220 nm at 0.02 AUFS (the retention time for migrastatin is ca. 4 min, the identity of this peak was confirmed by mass spectral analysis). Incubation and sample preparation conditions: A solution (ca. 30 mM) of chemical compound (Table 5) in DMSO is prepared. 2 μL of the solution is added to a mixture containing 200 μL of mouse plasma and 800 μL of PBS. The resulting solution is put into a water bath at 37° C., and 100 μL of sample is withdrawn at 10, 20, 30, 45, and 60 min. The precipitate is removed by centrifugation and 20 μL of the supernatant is injected onto the HPLC.

Series [4] concerns 4T1 mouse breast tumor cells. The series is described as follows: Wound-healing assay with 4T1 cells. Format: cell-based. Conditions: with serum, 200 μM, overnight. The text has this:
In the wound healing assay, standard scratches (i.e., wounds) were made through a confluent 4T1 cell layer. In the absence of serum, cells would not migrate across the empty space created by application of the scratch. Upon addition of serum containing migration-enabling factors, migration of 4T1 cells across the scratch was induced. Exposure to these cells to inventive compounds allowed the evaluation of the cell migration inhibitory activity of these compounds.
Wound-Healing Assay (See FIG. 6). 4T1 mouse breast tumor cells in RPMI-1640 medium containing 10% fetal bovine serum (FBS) were seeded into wells of 24-multiwell plates (Becton-Dickinson). After cells grew to confluence, wounds were made with sterile pipette tips. Cells were washed with Phosphate Buffered Saline (PBS) and refreshed with growth medium containing different concentrations of chemical compounds. After overnight incubation at 37° C., cells were fixed and photographed.

The subject of series [5] is 4T1 tumor cells. The series can be described thus: Cell proliferation assay (MTT). The settings on record: up to 20 μM, 48 h.
Protocol: Cell Proliferation Assay: 4×10^4 of 4T1 tumor cells in RPMI-1640 medium containing 10% FBS were seeded into wells of 96-multiwell plates (Becton-Dickinson) in the presence or absence of chemical compounds and then incubated at 37° C. for 48 h. An MTT kit (Cell Proliferation Kit I, Roche) (a colorimetric assay) was used to quantify cell proliferation and viability. The number of living cells, thus the total metabolic activity, directly correlates to the amount of purple formazan crystals formed (monitored by the absorbance).
The test system of series [6] is cell migration. The series is described as follows: Chamber cell migration assay (preliminary). It counts as cell-based. Conditions: 36 h, tested 200, 100, 50, 25, 10 μM. On the procedure: Cells were grown in an appropriate media to 70 to 80% confluence and incubated in serum and growth factor free media for 24 h. Cells were detached by trypsin treatment, collected by centrifugation and resuspended in serum free media to a final concentration of 150,000 cells/mL. 400 μL of the cell suspension were loaded into a fibronectin coated insert for 24 well multidishes. 750 μL fully supplemented media were applied to the compartment under the insert. To both chambers the inhibitor was added at the intended concentration and the plates were incubated for 36 h at 37° C., 5% CO2. […] The resulting CyQuant assay solution was transferred to the cavities of a 96 well microtiter plate and the fluorescence signal was recorded in an appropriate reader. The CyQuant dye forms a highly fluorescent complex with DNA, thus the fluorescence signal is proportional to the number of cells that migrated through the membrane in the presence of the test compound (N^inh). […] The positive control fluorescent reading correlates with the number of cells that migrate through the membrane in the absence of inhibitor (N^+). […] The negative control fluorescent reading correlates with the number of cells that migrate through the membrane through non-directed processes (N^−). The anti-migratory effect of a test compound is determined by the ratio (N^inh−N^−)/(N^+−N^−).

Series [7] deals with HUVEC. The series is described as follows: Tube formation assay. Format: cell-based, human. Conditions: minimal concentration causing definite disturbance of tube network; 16-18 h; tested 200, 100, 50, 25, 10 μM. The procedure: A protocol was designed based on the instructions from the provider (BD Bioscience, San Jose, Calif.). Briefly, wells of a 48 well culture dish were covert with 150 μL matrigel and the matrigel was gelatinized for 30 min at 37° C. A 80-90% confluent HUVEC (BD Bioscience, San Jose, Calif.) culture was trypsin treated, the detached cells were collected by centrifugation and resuspended in EGM-2 media (BD Bioscience, San Jose, Calif.). Cell concentration was adjusted to 100.000 cells/mL. 400 μL of the cell suspension were filled in the matrigel coated wells, and a solution of the inhibitor was added to the intended final concentration. The plates were incubated at 37° C. with 5% CO2 for 16-18 h. Media was removed, and the matrigel surface was washed twice with 500 μL PBS before cells were labeled with 250 μL […] Calcein AM (Pierce, Rockford, Ill.) in PBS for 30 min at 37° C. After two additional washing steps (500 μL PBS) cells were visualized under an inverted microscope. Fluorescence was excited at 488 nm and recorded at 538 nm. The minimum effect concentration was defined as the minimal inhibitor concentration that caused a definite disturbance of the complexity of the formed tube network.

The subject of series [8] is KYSE-520 cells. The series is described as follows: Wound healing (scratch) assay. The settings on record: 28 to 30 h, tested 200, 100, 50, 25, 10 μM. Format: cell-based. On the procedure:
The wound healing assay was performed based on the method described by Nakae et al. (Nakae et al., J. Antibiotics (2000), 53, 1130-1136). Briefly, adherent cells were grown in a suitable media to confluence (e.g. KYSE-520 cells in RPMI-1640 with 10% FBS). Cells were starved for 24 h in serum free media. A scratch (ca. 0.5 mm) was applied and the cell layer was washed twice with PBS after removal of the media. Fresh, serum free media with the test compound at the desired concentration was added and the cells were incubated for 28 to 30 h at 37° C., 5% CO2. The scratch size was compared to that observed for cells exposed to 100 μM Migrastatin. Test compounds associated with a scratch size equal to or larger than that observed for cells exposed to 100 μM Migrastatin were deemed to have cell migration inhibitory activity at least equal to Migrastatin.

For the compound `COC1C=CCCCCC(=O)CCC(C)=CC(C)C1O` (stereo not drawn) [macroketone (60), Macroketone], the “effect on tumor growth in mice” value in series [1] was “minor effect on tumor growth”. Also, the “lung metastasis, colonies (6-thioguanine clonogenic assay)” value in series [2] (10 mg/kg i.p. daily Day 7-25, Day 28) turned out to be 3875±2525 colonies; in series [2] (20 mg/kg i.p. daily Day 7-25, Day 28) it was 650±575 colonies.
Take `COC1C=CCCCCC(=O)OCC(C)=CC(C)C1O` (stereo not drawn) [macrolactone (48), Macrolactone]: in series [3], the “stability (t1/2, mouse plasma)” value is less than 5 min and the “stability (t1/2, mouse plasma), in words” value is reported as “hydrolyzed rapidly”. Further, the “inhibition of 4T1 cell migration across the scratch” value in series [4] is recorded as “almost completely inhibited cell migration across the scratch”. Also, the “cytotoxic or anti-proliferative effects on 4T1 cells” value in series [5] is “did not have any cytotoxic or anti-proliferative effects up to 20 μM”.
On to `CO[C@H]1/C=C/CC/C=C/C(=O)O[C@H]([C@H](C)C(=O)CCCC2CC(=O)NC(=O)C2)/C(C)=C\[C@@H](C)[C@@H]1O` [migrastatin (1), Migrastatin], for which the IC50 in series [6] worked out at 200 µM. The “stability (t1/2, mouse plasma), in words” value in series [3] is given as “stable^1”; in series [3] (listed as migrastatin), “completely inert toward lactone opening”. The “inhibition of 4T1 cell migration across the scratch” value in series [4] is listed as “not as great”. Besides, the Minimum effect concentration in series [7] and in series [8] was 100 µM throughout.
In the case of N-Methyl-migrastatin, the Minimum effect concentration in series [7] is 200 µM; in series [8] it was 100 µM.

In general, IC50 refers to the concentration at which inhibition is half-maximal. Low values mean greater potency in that assay, high ones weaker potency in that assay.
